Several values for one entry are separate records, joined by “and”; a condition that tells them apart may be missing. Equal values may be shown once. Read-outs that look alike come from different tables or passages of the source.
What was measured:
DENV2 NGC [1] = assay: Viral infectivity assay; assay type: cell-based, dengue virus serotype 2 New Guinea C; conditions: negative control compound
DENV2 sE2 [2] = target: T1, DENV2 sE2 (Dengue virus type 2, UniProt P14340); conditions: assay optimisation, Figure S1
ZIKV PF-251013–18 = assay: Plaque reduction assay, ZIKV; conditions: read-out: PRNT50 ZIKV
BHK-21 cells = assay type: cell-based
DENV2 sE2 [3] = target: T1, DENV2 sE2; conditions: biolayer interferometry
DENV1 WP74 = assay: Plaque reduction assay, DENV1; assay type: cell-based, dengue virus serotype 1; conditions: read-out: PRNT50 DENV1
DENV3 THD3 = assay: Plaque reduction assay, DENV3; assay type: cell-based, dengue virus serotype 3; conditions: read-out: PRNT50 DENV3
[4] = Dynamic light scattering, particle size; assay type: physicochemical
DENV2 NGC [5] = assay: Plaque reduction assay, DENV2; assay type: cell-based, dengue virus serotype 2; conditions: read-out: PRNT50 DENV2
AmpC β-lactamase = AmpC β-lactamase (Escherichia coli, UniProt P00811)
AmpC β-lactamase, sequence (P00811 20-377): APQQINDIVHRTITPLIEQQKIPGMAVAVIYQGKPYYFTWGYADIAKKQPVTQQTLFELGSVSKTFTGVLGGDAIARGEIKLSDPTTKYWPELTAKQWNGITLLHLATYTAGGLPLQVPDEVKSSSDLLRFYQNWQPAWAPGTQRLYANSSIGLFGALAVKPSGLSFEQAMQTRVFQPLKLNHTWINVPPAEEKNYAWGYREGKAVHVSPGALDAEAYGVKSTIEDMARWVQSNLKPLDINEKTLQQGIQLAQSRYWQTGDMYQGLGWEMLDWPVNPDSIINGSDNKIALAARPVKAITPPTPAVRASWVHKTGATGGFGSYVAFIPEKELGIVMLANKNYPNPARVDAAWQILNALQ

[6] = target: T2, malate dehydrogenase (MDH) (Sus scrofa, UniProt P00346); assay: Malate dehydrogenase; assay type: biochemical
T2 sequence (P00346 25-338): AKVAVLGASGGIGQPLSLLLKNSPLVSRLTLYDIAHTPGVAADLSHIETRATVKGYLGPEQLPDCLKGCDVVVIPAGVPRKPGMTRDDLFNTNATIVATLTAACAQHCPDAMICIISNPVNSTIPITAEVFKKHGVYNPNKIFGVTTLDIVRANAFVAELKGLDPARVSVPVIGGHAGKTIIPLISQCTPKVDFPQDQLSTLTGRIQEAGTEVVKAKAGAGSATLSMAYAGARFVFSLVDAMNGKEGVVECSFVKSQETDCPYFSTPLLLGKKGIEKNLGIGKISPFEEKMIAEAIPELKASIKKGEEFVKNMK

DENV4 TVP360 = assay: Plaque reduction assay, DENV4; assay type: cell-based, dengue virus serotype 4; conditions: read-out: PRNT50 DENV4
[7] = Microsome stability in vitro; assay type: in vitro ADME; conditions: mouse microsomes in vitro
[8] = test system: E-mediated fusion of DENV2 virions with liposomes; conditions: for Inhibition of E-mediated fusion: close to IC90
VSV-eGFP = assay type: cell-based, vesicular stomatitis virus
[9] = read-out: IC50 AmpC no TritonX, no Triton X-100
[10] = read-out: IC50 AmpC with TritonX, with 0.01% Triton X-100
[11] = read-out: IC50 MDH no TritonX, no Triton X-100
[12] = read-out: IC50 MDH with TritonX, with 0.01% Triton X-100

With `CN1CCN(c2ccc(Nc3cc(Oc4ccccc4)ncn3)cc2)CC1` [JW-068, N−[4-(4-Methylpiperazin-1-yl)phenyl]-6-phenoxypyrimidin-4-amine] the “Inhibition of DENV2 infection” value (DENV2 NGC [1]) was “does not inhibit DENV2 infection” and the “Competition with GNF2-biotin for binding to sE2” value (DENV2 sE2 [2]) was “absence of competition”.
For `COc1cc(C(=O)NS(=O)(=O)c2ccccc2C)ccc1Cc1cn(C)c2ccc(NC(=O)OC3CCCC3)cc12` [S1633], the IC50 (ZIKV PF-251013–18; Vero cells, scored) was > 10 µM, the CC50 (BHK-21 cells) was 50 ± 3 µM and the Kd (DENV2 sE2 [3]) was 5.2 ± 2.1 µM. The IC50 (DENV1 WP74; BHK-21 cells, scored) was 1 to 10 µM, the IC50 (DENV3 THD3; BHK-21 cells, scored) was > 10 µM and the “Particle size at 40 μM with Tween20” value [4] was 9.2 nm. For the same molecule, the “Particle size at 40 μM without Tween20” value [4] was 823 nm, the IC50 (DENV2 NGC [5]; BHK-21 cells, scored) was 1 to 10 µM and the IC50 (AmpC β-lactamase; [9]) was 36.6 µM. The IC50 (AmpC β-lactamase; [10]) was > 100 µM, the IC50 [6, 11] was 48.2 µM and the IC50 [6, 12] was > 100 µM. The IC50 (DENV4 TVP360; BHK-21 cells, scored) was 1 to 10 µM, the “T1/2 (Microsome stability)” value [7] was 37.7 min and the “Inhibition of E-mediated fusion” value ([8]; 10 μM) was “inhibit E-mediated fusion”.
In the case of `CN(CC(=O)N(Cc1ccc(C2CCCCC2)cc1)c1ccc(C(=O)O)cc1)S(=O)(=O)c1c(F)c(F)c(F)c(F)c1F` [S7337], the IC50 (ZIKV PF-251013–18; Vero cells, scored) is reported as 1 to 10 µM, the IC50 (ZIKV PF-251013–18; bound stated) is reported as ≤ 10 µM and the CC50 (BHK-21 cells) is reported as 13 ± 5 µM. For the same molecule, the Kd (DENV2 sE2 [3]) was 1.3 ± 0.5 µM, the IC50 (DENV1 WP74; BHK-21 cells, scored) was < 1 µM and the IC50 (DENV1 WP74; bound stated) was ≤ 1 µM. For the same molecule, the IC50 (DENV3 THD3; bound stated) was ≤ 10 µM, the “Particle size at 40 μM with Tween20” value [4] was 8.2 nm and the “Particle size at 40 μM without Tween20” value [4] was 144 nm. For the same molecule, the IC50 (DENV2 NGC [5]; BHK-21 cells, scored) was < 1 µM, the IC50 (DENV2 NGC [5]; bound stated) was ≤ 1 µM and the IC50 (AmpC β-lactamase; [9]) was > 100 µM. For the same molecule, the IC50 (AmpC β-lactamase; [10]) was > 100 µM, the IC50 [6, 11] was 86.4 µM and the IC50 [6, 12] was > 100 µM. For the same molecule, the IC50 (DENV4 TVP360; BHK-21 cells, scored) was < 1 µM, the IC50 (DENV4 TVP360; bound stated) was ≤ 1 µM and the “T1/2 (Microsome stability)” value [7] was 3.2 min. The “Inhibition of E-mediated fusion” value ([8]; 3 μM) was “inhibit E-mediated fusion”.
For `Cc1cc(C(C#N)c2ccc(Cl)cc2)c(Cl)cc1NC(=O)c1cc(I)cc(I)c1O` (stereo not drawn) [S4105], the IC50 (ZIKV PF-251013–18; Vero cells, scored) was < 1 µM, the IC50 (ZIKV PF-251013–18; bound stated) was ≤ 1 µM and the CC50 (BHK-21 cells) was 50 ± 15 µM. For the same molecule, the Kd (DENV2 sE2 [3]) was 0.9 ± 0.3 µM, the IC50 (DENV1 WP74; BHK-21 cells, scored) was < 1 µM and the IC50 (DENV1 WP74; bound stated) was ≤ 1 µM. The IC50 (DENV3 THD3; BHK-21 cells, scored) was 1 to 10 µM, the IC50 (DENV3 THD3; bound stated) was ≤ 10 µM and the “Particle size at 40 μM with Tween20” value [4] was 13.1 nm. For the same molecule, the “Particle size at 40 μM without Tween20” value [4] was 82 nm, the IC50 (DENV2 NGC [5]; BHK-21 cells, scored) was < 1 µM and the IC50 (DENV2 NGC [5]; bound stated) was ≤ 1 µM. The IC50 (AmpC β-lactamase; [9]) was 19.5 µM, the IC50 (AmpC β-lactamase; [10]) was > 100 µM and the IC50 [6, 11] was 0.3 µM. For the same molecule, the IC50 [6, 12] was > 100 µM, the “Inhibition % vs. VSV-eGFP” value (VSV-eGFP) was 64% and 60% and the IC50 (DENV4 TVP360; BHK-21 cells, scored) was < 1 µM. The IC50 (DENV4 TVP360; bound stated) was ≤ 1 µM, the “T1/2 (Microsome stability)” value [7] was > 120 min and the “Inhibition of viral fusion (protection of core from trypsin digestion)” value ([8]; at 5, 1, and 0.5 μM, Western blot) was “inhibit viral fusion in a concentration-dependent manner”.
